Measurements from PMC8870583, “EGCG Promotes FUS Condensate Formation in a Methylation-Dependent Manner” (Cells, 2022).

Assays:
FUS^RGG3PY = molecular target: T1, FUS^RGG3PY (Homo sapiens, UniProt P35637); assay: 1H-15N HSQC NMR titration (CSP); assay type: binding; details: no RNA; EGCG 10-500 µM; 30 µM protein; pH 6.0, 150 mM NaCl, 25 °C; several sites, non-specific
T1 construct: RGG3-PY region, residues 454-526, unmethylated; His6-protein A tag cut by TEV; E. coli BL21(DE3) Star
T1 sequence (P35637 454-526): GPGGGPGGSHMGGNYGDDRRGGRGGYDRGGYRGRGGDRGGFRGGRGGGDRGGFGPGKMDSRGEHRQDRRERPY

FUS RGG3PY = FUS RGG3PY (UniProt P35637 454-526); assay: NMR 1H-15N HSQC titration; 30 uM protein, 0-7.5 uM RNA; unmethylated; CSPs lower than methylated at 4:1, line broadening; 50 mM sodium succinate pH 6.0, 150 mM NaCl, 2 mM TCEP, 0.04% NaN3, 10% D2O, 25 C; details: protein: recombinant; tags: His6-protein A tag removed by TEV

In the case of `O=C(O[C@@H]1Cc2c(O)cc(O)cc2O[C@@H]1c1cc(O)c(O)c(O)c1)c1cc(O)c(O)c(O)c1` [EGCG], the “1H-15N HSQC NMR titration (CSP)” value (FUS^RGG3PY) is reported as “EGCG can directly interact with the RGG3-PY region of FUS”.

B1: (UG)12 RNA (ssRNA)
RNA: UGUGUGUGUGUGUGUGUGUGUGUG
B1: binds (FUS RGG3PY).
